Key:
Type in all cases: in vivo
OMT = assay: cDNA microarray of OMT expression in sugarcane plants sprayed with defense-inducing agents; settings: treated (Cy5) v. untreated control (Cy3), normalized
Protocol: The 251 cDNA clones used for microarray analysis in Example 1 were further used to assess the effects of defense-inducing agents on the expression of the stem-specific genes.
Total RNA was extracted from wild type sugarcane plants (3 months-old) that were sprayed with the defense-inducing agents jasmonic acid (JA) (25µM in 0.05.percent.Tween 20), methyl-jasmonate (MeJA) (200µM in 0.1.percent.ethanol and 0.05.percent.Tween 20) or salicylic acid (SA) (5 mM in 0.05.percent.Tween 20) for two time periods, 24 and 48 hours. The microarray including 251 cDNAs was probed with fluorescently labeled cDNAs synthesized from 1µg of total amplified RNA. One cDNA probe (e.g. RNA from plant treated with a defense-inducing agent) is labeled with one dye (Cy5), and the second (e.g. RNA from untreated control plant) with another dye (Cy3)
The normalized ratio of Cy5 v.

GUS [1] = assay: Histochemical transient GUS expression in particle bombarded maize stem tissue; settings: versus Ubiquitin 1 promoter
Excerpt: (§1) FIG. 14 is a photomicrograph of particle bombarded maize and sorghum stem tissues showing histochemical localization of transient GUS expression driven by the stem-regulated OMT promoter or the constitutive maize ubiquitinl promoter.

GUS [2] = assay: Histochemical transient GUS expression in particle bombarded sorghum stem tissue; settings: versus Ubiquitin 1 promoter
Excerpt: as §1

Compound	Cy5/Cy3 Ratios (Upregulation) for OMT (OMT; 24 hours after spraying)	Cy5/Cy3 Ratios (Upregulation) for OMT (OMT; 48 hours after spraying)	Transient expression of GUS in stem tissue (GUS [1])	Transient expression of GUS in stem tissue (GUS [2])
CC/C=C\C[C@H]1C(=O)CC[C@@H]1CC(=O)O [JA, jasmonic acid]	0.99	2.00	–	–
CC/C=C\CC1C(=O)CCC1CC(=O)OC (stereo not shown) [MeJA, methyl-jasmonate]	0.70	0.97	–	–
O=C(O)c1ccccc1O [SA, salicylic acid]	–	2.00	–	–
OMT promoter: sugarcane o-methyl transferase gene promoter, SEQ ID NO:1, directing stem-regulated, defense-inducible expression	–	–	comparable to that obtained with the Ubiquitin 1 promoter	comparable to that obtained with the Ubiquitin 1 promoter

— patent US7973217B2, “Stem-regulated, plant defense promoter and uses thereof in tissue-specific expression in monocots” (The Texas A&M University System, priority 2003, dated 2011)
